Source: ChEMBL document CHEMBL4177690, “(E)-3-(3,4,5-Trimethoxyphenyl)-1-(pyridin-4-yl)prop-2-en-1-one, a heterocyclic chalcone is a potent and selective CYP1A1 inhibitor and cancer chemopreventive agent” (Bioorg Med Chem Lett, 2017)

Target: T1, Cytochrome P450 1B1 (Homo sapiens, UniProt Q16678)
T1 sequence (Q16678 whole entry): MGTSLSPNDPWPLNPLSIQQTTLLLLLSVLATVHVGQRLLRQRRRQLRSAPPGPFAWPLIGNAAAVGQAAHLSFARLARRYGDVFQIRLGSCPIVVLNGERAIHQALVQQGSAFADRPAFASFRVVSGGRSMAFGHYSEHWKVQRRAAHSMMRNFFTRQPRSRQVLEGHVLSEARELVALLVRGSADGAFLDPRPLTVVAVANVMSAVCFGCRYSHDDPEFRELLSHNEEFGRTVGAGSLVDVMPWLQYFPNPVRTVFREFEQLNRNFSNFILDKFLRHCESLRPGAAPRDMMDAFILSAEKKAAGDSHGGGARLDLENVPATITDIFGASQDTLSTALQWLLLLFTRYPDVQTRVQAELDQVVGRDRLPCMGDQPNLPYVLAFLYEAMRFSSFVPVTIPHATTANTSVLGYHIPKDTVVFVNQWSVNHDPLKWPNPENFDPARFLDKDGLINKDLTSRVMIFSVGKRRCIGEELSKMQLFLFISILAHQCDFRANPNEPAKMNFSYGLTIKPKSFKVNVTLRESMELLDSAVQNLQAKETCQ
Experiment: Inhibition of recombinant human CYP1B1 expressed in HEK293 cells using 7-ethoxyresorufin as substrate pretreated for 30 mins followed by substrate addition measured for 60 mins by fluorescence assay; call rule not given here
Assay type: cell-based

IC50 [nM] | Structure (SMILES)
610 | CCOc1c(OC)cc(/C=C/C(=O)c2ccncc2)cc1OC
22 | COc1ccc(/C=C/C(=O)c2ccncc2)c(OC)c1OC
60 | COc1ccccc1/C=C/C(=O)c1ccncc1

Target: T2, Cytochrome P450 1A1 (Homo sapiens, UniProt P04798)
T2 sequence (P04798 whole entry): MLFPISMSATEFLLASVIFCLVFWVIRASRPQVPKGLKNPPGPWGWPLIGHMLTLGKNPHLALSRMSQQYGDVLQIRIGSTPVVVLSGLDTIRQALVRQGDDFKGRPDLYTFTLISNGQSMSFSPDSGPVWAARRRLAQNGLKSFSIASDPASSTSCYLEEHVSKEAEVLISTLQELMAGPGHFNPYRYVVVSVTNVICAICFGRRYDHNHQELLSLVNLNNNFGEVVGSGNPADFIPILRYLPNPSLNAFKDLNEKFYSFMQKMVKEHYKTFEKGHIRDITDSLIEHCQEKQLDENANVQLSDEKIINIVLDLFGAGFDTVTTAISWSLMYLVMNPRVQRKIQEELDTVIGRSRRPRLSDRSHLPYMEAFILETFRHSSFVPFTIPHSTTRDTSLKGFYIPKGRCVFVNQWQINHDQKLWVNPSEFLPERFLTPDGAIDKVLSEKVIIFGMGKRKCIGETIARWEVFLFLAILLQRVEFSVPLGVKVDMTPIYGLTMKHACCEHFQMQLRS
Experiment: Inhibition of recombinant human CYP1A1 expressed in HEK293 cells using 7-ethoxyresorufin as substrate pretreated for 30 mins followed by substrate addition measured for 60 mins by fluorescence assay
Assay type: cell-based

IC50 [nM] | Structure (SMILES)
280 | CCOc1c(OC)cc(/C=C/C(=O)c2ccncc2)cc1OC
1330 | COc1ccc(/C=C/C(=O)c2ccncc2)c(OC)c1OC
610 | COc1ccccc1/C=C/C(=O)c1ccncc1

Target: T3, Cytochrome P450 2C9 (Homo sapiens, UniProt P11712)
Experiment: Inhibition of human CYP2C9 expressed in yeast microsomal membranes using 3-cyano-7-ethoxycoumarin as substrate measured after 10 mins by fluorescence assay
Assay type: ADME, cell membranes, Microsomal Membrane

T3 sequence (P11712 whole entry): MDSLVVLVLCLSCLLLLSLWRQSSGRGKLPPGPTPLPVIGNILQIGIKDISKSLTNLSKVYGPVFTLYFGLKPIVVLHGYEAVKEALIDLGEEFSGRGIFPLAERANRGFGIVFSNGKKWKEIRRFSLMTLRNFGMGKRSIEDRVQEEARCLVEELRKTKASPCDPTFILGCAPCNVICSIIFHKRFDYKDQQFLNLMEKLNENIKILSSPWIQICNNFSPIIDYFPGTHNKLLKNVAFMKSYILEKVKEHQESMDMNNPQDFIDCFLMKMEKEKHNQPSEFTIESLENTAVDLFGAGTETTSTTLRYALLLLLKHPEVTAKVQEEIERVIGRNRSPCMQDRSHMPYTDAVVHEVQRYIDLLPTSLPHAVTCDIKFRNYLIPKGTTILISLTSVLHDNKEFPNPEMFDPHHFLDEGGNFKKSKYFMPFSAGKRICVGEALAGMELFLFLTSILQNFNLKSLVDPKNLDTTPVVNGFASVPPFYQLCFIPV

IC50 [nM] | Structure (SMILES)
> 20000 | CCOc1c(OC)cc(/C=C/C(=O)c2ccncc2)cc1OC
> 20000 | COc1ccc(/C=C/C(=O)c2ccncc2)c(OC)c1OC
> 20000 | COc1ccccc1/C=C/C(=O)c1ccncc1

Target: T4, Cytochrome P450 1A2 (Homo sapiens, UniProt P05177)
T4 sequence (P05177 whole entry): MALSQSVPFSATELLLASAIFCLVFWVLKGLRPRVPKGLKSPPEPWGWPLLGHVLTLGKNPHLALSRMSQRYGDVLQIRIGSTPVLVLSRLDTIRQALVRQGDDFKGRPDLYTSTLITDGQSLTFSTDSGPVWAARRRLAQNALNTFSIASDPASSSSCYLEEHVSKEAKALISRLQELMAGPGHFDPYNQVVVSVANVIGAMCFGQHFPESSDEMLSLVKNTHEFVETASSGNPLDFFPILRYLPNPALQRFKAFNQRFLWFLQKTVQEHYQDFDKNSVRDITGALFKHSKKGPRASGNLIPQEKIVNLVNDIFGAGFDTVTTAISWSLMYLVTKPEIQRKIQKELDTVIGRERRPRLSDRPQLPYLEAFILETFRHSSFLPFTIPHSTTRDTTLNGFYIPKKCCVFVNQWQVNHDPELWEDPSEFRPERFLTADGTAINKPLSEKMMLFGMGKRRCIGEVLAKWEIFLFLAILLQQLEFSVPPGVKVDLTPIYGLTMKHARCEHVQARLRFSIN
Experiment: Inhibition of recombinant human CYP1A2 expressed in HEK293 cells using 3-cyano-7-ethoxycoumarin as substrate pretreated for 30 mins followed by substrate addition measured for 60 mins by fluorescence assay
Assay type: ADME

IC50 [nM] | Structure (SMILES)
2210 | CCOc1c(OC)cc(/C=C/C(=O)c2ccncc2)cc1OC
200 | COc1ccc(/C=C/C(=O)c2ccncc2)c(OC)c1OC
32 | COc1ccccc1/C=C/C(=O)c1ccncc1

Target: T5, Aryl hydrocarbon receptor (Homo sapiens, UniProt P35869)
T5 sequence (P35869 whole entry): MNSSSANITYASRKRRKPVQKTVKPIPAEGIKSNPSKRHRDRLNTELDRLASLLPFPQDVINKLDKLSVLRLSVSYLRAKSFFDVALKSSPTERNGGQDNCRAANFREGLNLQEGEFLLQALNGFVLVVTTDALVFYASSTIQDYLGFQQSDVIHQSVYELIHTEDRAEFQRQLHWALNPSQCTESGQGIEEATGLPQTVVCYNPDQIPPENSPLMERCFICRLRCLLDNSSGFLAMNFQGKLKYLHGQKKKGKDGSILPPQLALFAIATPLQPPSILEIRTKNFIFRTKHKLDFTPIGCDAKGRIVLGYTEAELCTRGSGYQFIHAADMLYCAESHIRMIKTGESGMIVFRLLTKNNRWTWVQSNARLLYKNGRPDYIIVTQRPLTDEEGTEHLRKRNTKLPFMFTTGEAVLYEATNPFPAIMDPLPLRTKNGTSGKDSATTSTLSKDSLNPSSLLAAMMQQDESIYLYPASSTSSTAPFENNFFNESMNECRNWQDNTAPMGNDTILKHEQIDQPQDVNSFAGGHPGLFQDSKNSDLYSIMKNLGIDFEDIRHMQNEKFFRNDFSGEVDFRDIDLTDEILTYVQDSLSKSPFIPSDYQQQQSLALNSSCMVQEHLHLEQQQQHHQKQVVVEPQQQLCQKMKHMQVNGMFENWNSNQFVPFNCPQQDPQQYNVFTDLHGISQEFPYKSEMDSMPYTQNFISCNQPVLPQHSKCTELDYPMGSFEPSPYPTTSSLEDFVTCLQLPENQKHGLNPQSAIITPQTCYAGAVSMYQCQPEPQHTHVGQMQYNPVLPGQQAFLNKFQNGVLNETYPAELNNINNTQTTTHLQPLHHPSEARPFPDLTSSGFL
Experiment: Antagonist activity at recombinant human eGFP-fused Ahr expressed in yeast cells co-expressing ARNT assessed as inhibition of benzo(a)pyrene-induced Ahr activation at 1 uM measured after 18 hrs by fluorescence assay
Assay type: cell-based

inhibition (INH) | Structure (SMILES)
Active | COc1ccc(/C=C/C(=O)c2ccncc2)c(OC)c1OC

Target: T6, Cytochrome P450 2C19 (Homo sapiens, UniProt P33261)
Experiment: Inhibition of recombinant human CYP2C19 expressed in HEK293 cells using 3-cyano-7-ethoxycoumarin as substrate pretreated for 30 mins followed by substrate addition measured for 60 mins by fluorescence assay
Assay type: ADME

T6 sequence (P33261 whole entry): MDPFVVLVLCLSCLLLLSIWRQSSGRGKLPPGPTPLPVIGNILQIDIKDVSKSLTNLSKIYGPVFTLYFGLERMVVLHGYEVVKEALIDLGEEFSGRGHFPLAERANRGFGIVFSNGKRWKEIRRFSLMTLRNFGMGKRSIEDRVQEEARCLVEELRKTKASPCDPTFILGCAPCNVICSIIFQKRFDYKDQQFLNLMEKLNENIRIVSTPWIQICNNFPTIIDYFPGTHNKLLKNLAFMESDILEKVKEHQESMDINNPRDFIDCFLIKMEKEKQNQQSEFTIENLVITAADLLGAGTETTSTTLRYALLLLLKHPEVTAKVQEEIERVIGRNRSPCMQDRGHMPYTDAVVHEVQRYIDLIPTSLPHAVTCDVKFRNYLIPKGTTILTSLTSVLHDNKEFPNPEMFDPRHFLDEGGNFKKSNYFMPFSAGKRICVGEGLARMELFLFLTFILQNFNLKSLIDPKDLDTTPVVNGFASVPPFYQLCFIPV

IC50 [nM] | Structure (SMILES)
> 10000 | CCOc1c(OC)cc(/C=C/C(=O)c2ccncc2)cc1OC
> 10000 | COc1ccc(/C=C/C(=O)c2ccncc2)c(OC)c1OC
> 10000 | COc1ccccc1/C=C/C(=O)c1ccncc1

Target: T7, Cytochrome P450 3A4 (Homo sapiens, UniProt P08684)
Experiment: Inhibition of human CYP3A4 expressed in yeast microsomal membranes using dibenzylfluorescein as substrate measured after 10 mins by fluorescence assay
Assay type: ADME, cell membranes, Microsomal Membrane

T7 sequence (P08684 whole entry): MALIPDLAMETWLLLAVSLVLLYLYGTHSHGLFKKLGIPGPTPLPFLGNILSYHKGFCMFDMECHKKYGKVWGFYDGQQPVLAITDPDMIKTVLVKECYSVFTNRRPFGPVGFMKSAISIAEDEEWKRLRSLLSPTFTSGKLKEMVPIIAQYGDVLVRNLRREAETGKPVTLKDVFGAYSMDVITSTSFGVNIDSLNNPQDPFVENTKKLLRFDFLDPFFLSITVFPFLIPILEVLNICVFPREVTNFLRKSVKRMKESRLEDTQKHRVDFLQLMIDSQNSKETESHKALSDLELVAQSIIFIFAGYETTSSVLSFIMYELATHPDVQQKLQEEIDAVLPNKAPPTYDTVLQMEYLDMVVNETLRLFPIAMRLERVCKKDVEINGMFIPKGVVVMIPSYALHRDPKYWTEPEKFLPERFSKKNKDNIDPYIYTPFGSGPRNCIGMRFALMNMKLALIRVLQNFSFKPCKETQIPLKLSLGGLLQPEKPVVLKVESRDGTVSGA

IC50 [nM] | Structure (SMILES)
> 20000 | CCOc1c(OC)cc(/C=C/C(=O)c2ccncc2)cc1OC
> 20000 | COc1ccc(/C=C/C(=O)c2ccncc2)c(OC)c1OC
> 20000 | COc1ccccc1/C=C/C(=O)c1ccncc1

Target: T7, Cytochrome P450 3A4
Experiment: Inhibition of recombinant human CYP3A4 expressed in HEK293 cells using dibenzylfluorescein as substrate pretreated for 30 mins followed by substrate addition measured for 60 mins by fluorescence assay
Assay type: ADME

IC50 [nM] | Structure (SMILES)
> 10000 | CCOc1c(OC)cc(/C=C/C(=O)c2ccncc2)cc1OC
> 10000 | COc1ccc(/C=C/C(=O)c2ccncc2)c(OC)c1OC
> 10000 | COc1ccccc1/C=C/C(=O)c1ccncc1

Target: T1, Cytochrome P450 1B1
Experiment: Inhibition of human CYP1B1 expressed in yeast microsomal membranes using 7-ethoxyresorufin as substrate measured after 10 mins by fluorescence assay
Assay type: cell membranes

IC50 [nM] | Structure (SMILES)
698 | CCOc1c(OC)cc(/C=C/C(=O)c2ccncc2)cc1OC
32 | COc1ccc(/C=C/C(=O)c2ccncc2)c(OC)c1OC
48 | COc1ccccc1/C=C/C(=O)c1ccncc1

Target: T2, Cytochrome P450 1A1
Experiment: Inhibition of human CYP1A1 expressed in yeast microsomal membranes using 7-ethoxyresorufin as substrate measured after 10 mins by fluorescence assay
Assay type: cell membranes

IC50 [nM] | Structure (SMILES)
230 | CCOc1c(OC)cc(/C=C/C(=O)c2ccncc2)cc1OC
1410 | COc1ccc(/C=C/C(=O)c2ccncc2)c(OC)c1OC
570 | COc1ccccc1/C=C/C(=O)c1ccncc1

Target: T8, Cytochrome P450 2D6 (Homo sapiens, UniProt P10635)
Experiment: Inhibition of recombinant human CYP2D6 expressed in HEK293 cells using 7-ethoxy-methyloxy-3-cyanocoumarin as substrate pretreated for 30 mins followed by substrate addition measured for 60 mins by fluorescence assay
Assay type: ADME, cell-based

T8 sequence (P10635 whole entry): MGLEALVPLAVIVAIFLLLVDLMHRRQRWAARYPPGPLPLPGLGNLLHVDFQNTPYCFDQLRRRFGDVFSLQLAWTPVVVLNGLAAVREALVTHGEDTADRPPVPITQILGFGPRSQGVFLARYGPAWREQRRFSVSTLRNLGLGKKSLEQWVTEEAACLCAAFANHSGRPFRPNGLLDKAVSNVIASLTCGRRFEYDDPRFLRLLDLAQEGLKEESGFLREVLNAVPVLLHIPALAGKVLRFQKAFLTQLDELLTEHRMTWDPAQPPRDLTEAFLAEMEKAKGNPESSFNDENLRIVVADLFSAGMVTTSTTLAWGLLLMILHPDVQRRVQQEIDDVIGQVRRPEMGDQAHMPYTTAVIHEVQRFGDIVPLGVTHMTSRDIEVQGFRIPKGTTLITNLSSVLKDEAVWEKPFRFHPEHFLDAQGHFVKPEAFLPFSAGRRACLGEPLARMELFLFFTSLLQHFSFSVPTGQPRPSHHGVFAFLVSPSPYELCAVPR

IC50 [nM] | Structure (SMILES)
> 10000 | CCOc1c(OC)cc(/C=C/C(=O)c2ccncc2)cc1OC
> 10000 | COc1ccc(/C=C/C(=O)c2ccncc2)c(OC)c1OC
> 10000 | COc1ccccc1/C=C/C(=O)c1ccncc1

Target: T8, Cytochrome P450 2D6
Experiment: Inhibition of human CYP2D6 expressed in yeast microsomal membranes using 7-ethoxy-methyloxy-3-cyanocoumarin as substrate measured after 10 mins by fluorescence assay
Assay type: ADME, cell membranes, Microsomal Membrane

IC50 [nM] | Structure (SMILES)
12000 | CCOc1c(OC)cc(/C=C/C(=O)c2ccncc2)cc1OC
11000 | COc1ccc(/C=C/C(=O)c2ccncc2)c(OC)c1OC
11000 | COc1ccccc1/C=C/C(=O)c1ccncc1

Target: T3, Cytochrome P450 2C9
Experiment: Inhibition of recombinant human CYP2C9 expressed in HEK293 cells using 3-cyano-7-ethoxycoumarin as substrate pretreated for 30 mins followed by substrate addition measured for 60 mins by fluorescence assay
Assay type: ADME

IC50 [nM] | Structure (SMILES)
> 10000 | CCOc1c(OC)cc(/C=C/C(=O)c2ccncc2)cc1OC
> 10000 | COc1ccc(/C=C/C(=O)c2ccncc2)c(OC)c1OC
> 10000 | COc1ccccc1/C=C/C(=O)c1ccncc1

Target: T4, Cytochrome P450 1A2
Experiment: Inhibition of human CYP1A2 expressed in yeast microsomal membranes using 3-cyano-7-ethoxycoumarin as substrate measured after 10 mins by fluorescence assay
Assay type: ADME, cell membranes, Microsomal Membrane

IC50 [nM] | Structure (SMILES)
2580 | CCOc1c(OC)cc(/C=C/C(=O)c2ccncc2)cc1OC
104 | COc1ccc(/C=C/C(=O)c2ccncc2)c(OC)c1OC
32 | COc1ccccc1/C=C/C(=O)c1ccncc1

Target: T6, Cytochrome P450 2C19
Experiment: Inhibition of human CYP2C19 expressed in yeast microsomal membranes using 3-cyano-7-ethoxycoumarin as substrate measured after 10 mins by fluorescence assay
Assay type: ADME, cell membranes, Microsomal Membrane

IC50 [nM] | Structure (SMILES)
> 20000 | CCOc1c(OC)cc(/C=C/C(=O)c2ccncc2)cc1OC
> 20000 | COc1ccc(/C=C/C(=O)c2ccncc2)c(OC)c1OC
> 20000 | COc1ccccc1/C=C/C(=O)c1ccncc1
